Experimental data: patent US20230123334A1, “AMINO LIPID COMPOUND, PREPARATION METHOD THEREFOR, AND APPLICATION THEREOF” (SHENZHEN SHENXIN BIOTECHNOLOGY CO., LTD., priority 2020, published 2023)

Experiments:
HEK293 cells [1] = assay: Preliminary screening as DNA vectors, GFP transfection of HEK293 cells; format: cell-based; conditions: HEK293 cells; lipid/DOPE liposome with 75 ng plasmid DNA (psin-EGFP-IRES-Puro); number of cells expressing GFP divided by total number of nuclei (Hoechst)
In short: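 Lipid + DOPE liposomes (NaOAc, pH 5.6) complexed w/ 75 ng psin-EGFP-IRES-Puro, 30 min RT; added to 3-5×10^4 HEK293/well, 37° C. Hoechst 0.2 μg/mL at 20-24 h, imaged after further 20-24 h. Efficiency = GFP+ cells / total nuclei.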

HEK293 cells [2] = assay: Preliminary screening as mRNA vectors, EGFP mRNA transfection of HEK293 cells; format: cell-based; conditions: HEK293 cells, 96-well plates, EGFP mRNA 50 ng per well; percentage of GFP fluorescent cells relative to total number of cells (Hoechst)
In short: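 Each well of HEK293 cells received 50 ng of EGFP mRNA. Efficiency was expressed as percent GFP-expressing cells over Hoechst-defined total cell number.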

| Structure (SMILES) | Absolute DNA transfection efficiency in HEK293 cells (HEK293 cells [1]) [%] | Absolute mRNA transfection efficiency in HEK293 cells (HEK293 cells [2]) [%] |
| --- | --- | --- |
| CCCCCCCCCCCCCCCSc1nc(NCCN2CCCC2)nc(SCCCCCCCCCCCCCCC)n1 [Compound S15S15D3] | 0.0 | 0.2 |
| CCCCCCCCNc1nc(NCCCCCC)nc(NCCCN(C)C)n1 [Compound N6N8D6] | 0.1 | 0.0 |
| CCCCCCCCCCCCCNc1nc(NCCCCCCCCCCC)nc(NCCN2CCCC2)n1 [Compound N11N13D3] | 0.0 | 3.6 |
| CCCCCCCCCCCCCCCNc1nc(NCCCCCCCCC)nc(NCCN(CC)CC)n1 [Compound N9N15D7] | 0.0 | 0.8 |
| CCCCCCCCCCCCN(CCCCCCCCCCCC)c1nc(NCCCCCC)nc(NCCN2CCCC2)n1 [N6^2N12D3] | 0.4 | 0.1 |
| CCCCCCCCCCCCN(CCCCCCCCCCCC)c1nc(NCCCCCCCC)nc(NCCN2CCCC2)n1 [N8^2N12D3] | 0.1 | 0.9 |
| CCCCCCCCCCCCNc1nc(NCCCCCCCC)nc(NCCN(CC)CC)n1 [Compound N8N12D7] | 0.0 | 0.0 |
| CCCCCCCCCCCCCCCCCCNc1nc(NCCCN2CCN(C)CC2)nc(N(CCCCCCCCCCCC)CCCCCCCCCCCC)n1 [N18^2N12D9] | 0.6 | 0.6 |
| CCCCCCCCCCCCCCCSc1nc(NCC2CCN(C)CC2)nc(SCCCCCCCCCCC)n1 [Compound S11S15D10] | 42.3 | 75.9 |
| CCCCCCCCCCCCCCCCCCSc1nc(NCCN2CCN(C)CC2)nc(SCCCCCCCCCCCCCCCC)n1 [Compound S16S18D5] | 1.7 | 0.3 |
| CCCCCCCCCCCCNc1nc(NCCCCCCCCCCC)nc(NCCN2CCCC2)n1 [Compound N11N12D3] | 1.9 | 2.7 |
| CCCCCCCCCCCNc1nc(NCCCCCCCC)nc(NCCN2CCCC2)n1 [Compound N8N11D3] | 3.6 | 4.2 |
| CCCCCCCCCCCNc1nc(NCCCCCCCCCCC)nc(NCCCN2CCOCC2)n1 [Compound N11N11D8] | 0.0 | 1.5 |
| CCCCCCCCCCCCCCCSc1nc(NCCCN2CCOCC2)nc(SCCCCCCCCCC)n1 [Compound S10S15D8] | 15.2 | 11.1 |
| CCCCCCCCCCCCCCCCCCSc1nc(NCCCN2CCN(C)CC2)nc(SCCCCCCCCC)n1 [Compound S9S18D9] | 0.0 | 4.0 |
| CCCCCCCCCCCCCCCCSc1nc(NCCN(CC)CC)nc(SCCCCCCCCCC)n1 [Compound S10S16D7] | 3.1 | 0.7 |
| CCCCCCCCCCCCNc1nc(NCCN2CCOCC2)nc(N(CCCCCCCCCCCC)CCCCCCCCCCCC)n1 [N12^2N12D2] | 0.4 | 0.3 |
| CCCCCCCCCCCNc1nc(NCCCCCCC)nc(NCCCN(C)C)n1 [Compound N7N11D6] | 1.1 | 1.5 |
| CCCCCCCCCCCCSc1nc(NCCCN(C)C)nc(SCCCCCCCCCCCC)n1 [Compound S12S12D6] | 3.9 | 2.6 |
| CCCCCCCCCCCCNc1nc(NCCN2CCCCC2)nc(N(CCCCCCCCCCCC)CCCCCCCCCCCC)n1 [N12^2N12D4] | 2.5 | 2.6 |
| CCCCCCCCCCCCCCCCNc1nc(NCCCCCCCC)nc(NCCN(CC)CC)n1 [Compound N8N16D7] | 3.1 | 0.3 |
| CCCCCCCCCCCCNc1nc(NCCCCCCCCCCC)nc(NCCN(CC)CC)n1 [Compound N11N12D7] | 0.0 | 2.4 |
| CCCCCCCCCCCNc1nc(NCCCCCCCC)nc(NCCCN2CCN(C)CC2)n1 [Compound N8N11D9] | 0.0 | 0.0 |
| CCCCCCCCCCCCCCCNc1nc(NCCCCCCCCCCCCC)nc(NCCCN2CCOCC2)n1 [Compound N13N15D8] | 0.0 | 0.0 |

| Structure (SMILES) | Absolute DNA transfection efficiency in HEK293 cells (HEK293 cells [1]) [%] | Absolute mRNA transfection efficiency in HEK293 cells (HEK293 cells [2]) [%] |
| --- | --- | --- |
| CCCCCCCNc1nc(NCCCCCCC)nc(NCCN2CCN(C)CC2)n1 [Compound N7N7D5] | 0.0 | 0.5 |
| CCCCCCCCCCCCCCCCCCNc1nc(NCCCCCCCCCCCCC)nc(NCCCN(C)C)n1 [Compound N13N18D6] | 3.0 | 14.7 |
| CCCCCCCCCCCCCCCCCCNc1nc(NCCCCCCCCCCCCCCC)nc(NCC2CCN(C)CC2)n1 [Compound N15N18D10] | 3.5 | 7.4 |
| CCCCCCCCCCCCCCCNc1nc(NCCN2CCN(C)CC2)nc(N(CCCCCCCCCCCC)CCCCCCCCCCCC)n1 [N15^2N12D5] | 2.8 | 3.7 |
| CCCCCCCCCNc1nc(NCCCCCCC)nc(NCCN2CCN(C)CC2)n1 [Compound N7N9D5] | 0.0 | 0.2 |
| CCCCCCCCCCCCCCCCSc1nc(NCCCN2CCOCC2)nc(SCCCCCCCCCC)n1 [Compound S10S16D8] | 15.7 | 4.0 |
| CCCCCCCCCCCCCCCCNc1nc(NCCCCCCCCCCCCCCC)nc(NCCN2CCOCC2)n1 [Compound N15N16D2] | 0.0 | 0.0 |
| CCCCCCCCCCCCCCCNc1nc(NCCCCCCCC)nc(NCCN(CC)CC)n1 [Compound N8N15D7] | 0.0 | 0.0 |
| CCCCCCCCCCCCCCCNc1nc(NCCCCCCCCCCCCC)nc(NCCN2CCCCC2)n1 [Compound N13N15D4] | 0.0 | 0.0 |
| CCCCCCCCCNc1nc(NCCCCCC)nc(NCCCN2CCN(C)CC2)n1 [Compound N6N9D9] | 0.0 | 0.0 |
| CCCCCCCCCCCCCCCCCCSc1nc(NCCN(C)C)nc(SCCCCCCCCCCCCCCCCCC)n1 [Compound S18S18D1] | 0.0 | 0.0 |
| CCCCCCCCCCCCCCCCCCNc1nc(NCCCCCCCCCCCCC)nc(NCCN2CCCCC2)n1 [Compound N13N18D4] | 1.8 | 3.1 |
| CCCCCCCCCCCCCNc1nc(NCCCCCCCCCCC)nc(NCC2CCN(C)CC2)n1 [Compound N11N13D10] | 0.0 | 0.0 |
| CCCCCCCCNc1nc(NCCCCCCCC)nc(NCCN2CCCC2)n1 [Compound N8N8D3] | 1.8 | 0.4 |
| CCCCCCCCCCCCCCCNc1nc(NCCCCCCCCCCCCC)nc(NCCN2CCN(C)CC2)n1 [Compound N13N15D5] | 0.2 | 0.8 |
| CCCCCCCCCCCCSc1nc(NCCCN2CCOCC2)nc(SCCCCCCCCCCCC)n1 [Compound S12S12D8] | 3.4 | 3.8 |
| CCCCCCCCCCCCCCCCCCNc1nc(NCCCCCCCCCCCCCCCC)nc(NCCCN(C)C)n1 [Compound N16N18D6] | 0.0 | 4.4 |
| CCCCCCCCCCSc1nc(NCCCN(C)C)nc(SCCCCCCCCC)n1 [Compound S9S10D6] | 21.2 | 74.6 |
| CCCCCCCCCSc1nc(NCC2CCN(C)CC2)nc(SCCCCCCCCC)n1 [Compound S9S9D10] | 11.3 | 34.9 |
| CCCCCCCCCCCCCCCCCCNc1nc(NCCCCCCCC)nc(NCCN2CCN(C)CC2)n1 [Compound N8N18D5] | 1.9 | 0.9 |
| CCCCCCCCCCCCCNc1nc(NCCCN2CCOCC2)nc(N(CCCCCCCCCCCC)CCCCCCCCCCCC)n1 [N13^2N12D8] | 0.0 | 2.3 |
| CCCCCCCCCCCNc1nc(NCCCCCCCCCCC)nc(NCCN2CCOCC2)n1 [Compound N11N11D2] | 0.0 | 1.4 |
| CCCCCCCCCCCNc1nc(NCCCCCCCCC)nc(NCCN(C)C)n1 [Compound N9N11D1] | 0.0 | 2.2 |
